“Also recorded” adds a separate entry of the source.
How the values were obtained:
[1] = system: antigen specific CD8+ T cells; assay: Immunization of mice with ovalbumin plus TLR and CD40 agonists; antigen-specific CD8+ T cells by tetramer staining; type: in vivo
[2] = system: spleen cells; assay: Type 1 IFN (IFNalphabeta) induction in spleen cells in vitro; type: cell-based
Excerpt: Two forms of the recombinant protein are made; the light chain, heavy chain and HIV Gag with and without flagellin. The TLR7/8 agonist is conjugated to each other resulting in the production of proteins which stimulate CD40/TLR7/8. A proprietary TLR7/8 agonist, called 3M012 (3M Pharmaceuticals Inc, St. Paul Minn.) contains a photoconjugatable linker, which when placed under UV light, conjugates rapidly to terminal amino groups (lysines, arginines, N terminus) in the protein of interest. Conjugation to the TLR7/8 agonist is performed as described previously (Wille-Reece et al., J. Immunol. 174:7676 (2005)). Briefly, recombinant protein is placed in deep well polypropylene 96 well plates (Costar) with 50-100 microliters of 10 mg/ml 3M012 and exposed to longwave UV light for 15 minutes. Following UV exposure, the recombinant protein-TLR7/8 conjugate is washed through a 30 kd cutoff centricon concentrator to remove any free 3M012 and […] molecular weight drug conjugates. The recombinant protein-TLR7/8 conjugates are washed in PBS pH 7.5-8 and analyzed as described above for anti-CD40 and TLR5 activity (for recombinant protein containing flagellin). The amount of 3M012 conjugated to the recombinant protein is determined in vitro by type 1 IFN (IFNalphabeta) induction in spleen cells as previously described (Wille-Reece et al. (Id)).

flagellin
synergy with anti-CD40 for inducing CD8+ T cell expansion ([1]; whole ovalbumin + anti-CD40 + TLR agonist): able to synergize with anti-CD40; also recorded: effectively synergizes with anti-CD40
IFN alphabeta induction [2]: does not induce IFN alphabeta

poly IC
synergy with anti-CD40 for inducing CD8+ T cell expansion ([1]; mouse, in vivo): able to synergize with anti-CD40

— patent US20090004194A1, “TLR AGONIST (FLAGELLIN)/CD40 AGONIST/ANTIGEN PROTEIN AND DNA CONJUGATES AND USE THEREOF FOR INDUCING SYNERGISTIC ENHANCEMENT IN IMMUNITY” (Regents of the University of Colorado, priority 2006, published 2009)
